Data from paper PMC11984924, “Dipeptidic Phosphonates: Potent Inhibitors of Pseudomonas aeruginosa Elastase B Showing Efficacy in a Murine Keratitis Model” (Advanced Science, 2025).
Like-named read-outs stand apart in the source and are kept apart here.

Assays:
MMP-2 = molecular target: T1, MMP-2 (Homo sapiens, UniProt P08253); experiment: MMP-2 inhibition (off-target); type: biochemical; settings: read-out: MMP-2 % inhibition at 100 µM
T1 construct: purchased AnaSpec (Fremont, CA, USA)
T1 sequence (P08253 110-660): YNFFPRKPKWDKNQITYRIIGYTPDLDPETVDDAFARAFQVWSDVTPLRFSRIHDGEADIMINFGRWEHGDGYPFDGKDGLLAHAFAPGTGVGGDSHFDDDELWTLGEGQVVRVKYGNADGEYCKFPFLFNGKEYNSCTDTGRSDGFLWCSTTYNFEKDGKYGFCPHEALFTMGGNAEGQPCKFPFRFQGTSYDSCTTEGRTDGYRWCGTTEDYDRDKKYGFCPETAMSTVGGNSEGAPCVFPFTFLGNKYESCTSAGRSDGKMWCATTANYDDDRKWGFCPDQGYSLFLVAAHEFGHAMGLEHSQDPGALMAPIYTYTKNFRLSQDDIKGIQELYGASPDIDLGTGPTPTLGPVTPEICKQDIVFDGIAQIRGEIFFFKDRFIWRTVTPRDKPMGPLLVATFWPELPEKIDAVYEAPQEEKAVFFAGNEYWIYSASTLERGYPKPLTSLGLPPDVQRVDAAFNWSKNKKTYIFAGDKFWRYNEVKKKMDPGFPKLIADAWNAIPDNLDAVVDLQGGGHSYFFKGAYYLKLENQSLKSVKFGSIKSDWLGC
Procedure: 3.1 In vitro inhibition assays […]
MMPs, TACE). All in vitro inhibition assays were performed as described previously.[10] TACE inhibitor screening kits were purchased from Sigma-Aldrich (Saint Louis, MO). MMPs along with the SensoLyte 520 Generic MMP Activity Kit Fluorimetric were purchased from AnaSpec (Fremont, CA, USA). The assays were performed according to the guidelines of the respective manufacturer. Fluorescence signals were measured using a CLARIOstar plate reader (BMG Labtech, Ortenberg, Germany). […]
(§1) 3.8 Test against zinc metalloproteases MMP1–3 and TACE (ADAM17), and testing of
(§2) We selected a panel of human off -targets, including three human matrix metalloproteases (MMP-1, -2 and -3) and TACE (ADAM-17). These assays were performed as described previously.[3] The TACE inhibitor screening kit was purchased from Sigma -Aldrich (Saint Louis, MO). MMPs along with the SensoLyte 520 Generic MMP Activity Kit Fluorimetric were purchased from AnaSpec (Fremont, CA, USA). The assays were performed according to the guidelines of the respective manufacturer. Fluorescence signals were measured using a CLARIOstar plate reader (BMG Labtech, Ortenberg, Germany). […]
(§3) Table S6: Percent (%) inhibition of three MMPs (1 –3) and TACE (ADAM17) in presence of selected LasB inhibitors at 100 µM. Results are means and SD of at least two independent experiments. […]
(§4) Compound [% inhibition at [% inhibition at [% inhibition at [% inhibition at 100

TACE (ADAM17) = molecular target: T2, TACE (ADAM17) (Homo sapiens, UniProt P78536); experiment: TACE (ADAM17) inhibition (off-target); type: biochemical; settings: read-out: TACE (ADAM17) % inhibition at 100 µM
T2 construct: purchased Sigma-Aldrich (Saint Louis, MO)
T2 sequence (P78536 215-824): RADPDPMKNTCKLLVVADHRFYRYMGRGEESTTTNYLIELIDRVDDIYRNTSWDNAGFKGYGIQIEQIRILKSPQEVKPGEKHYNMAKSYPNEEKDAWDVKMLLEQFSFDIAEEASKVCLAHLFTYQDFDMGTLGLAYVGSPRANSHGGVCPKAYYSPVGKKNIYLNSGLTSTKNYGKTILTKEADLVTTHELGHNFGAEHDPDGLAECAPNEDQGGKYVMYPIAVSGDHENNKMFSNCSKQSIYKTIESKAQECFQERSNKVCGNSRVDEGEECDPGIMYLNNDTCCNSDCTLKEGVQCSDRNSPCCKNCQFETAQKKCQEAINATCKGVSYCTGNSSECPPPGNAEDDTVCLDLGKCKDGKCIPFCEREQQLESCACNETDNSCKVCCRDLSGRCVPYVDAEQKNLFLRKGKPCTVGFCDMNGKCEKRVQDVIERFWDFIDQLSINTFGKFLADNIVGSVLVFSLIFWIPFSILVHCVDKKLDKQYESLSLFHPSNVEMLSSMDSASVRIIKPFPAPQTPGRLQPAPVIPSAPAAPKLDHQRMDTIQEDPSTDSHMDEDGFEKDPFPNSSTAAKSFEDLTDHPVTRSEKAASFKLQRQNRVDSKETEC
Procedure: (§5) 3.1 In vitro inhibition assays
(§6) LasB was expressed and purified as described previously.[3] In vitro inhibition assays (LasB, MMPs, TACE). All in vitro inhibition assays were performed as described previously.[10] TACE inhibitor screening kits were purchased from Sigma-Aldrich (Saint Louis, MO). MMPs along with the SensoLyte 520 Generic MMP Activity Kit Fluorimetric were purchased from AnaSpec (Fremont, CA, USA). The assays were performed according to the guidelines of the respective manufacturer. Fluorescence signals were measured using a CLARIOstar plate reader (BMG Labtech, Ortenberg, Germany). […]
as §1, §2, §3, §4

MMP-3 = molecular target: T3, MMP-3 (Homo sapiens, UniProt P08254); experiment: MMP-3 inhibition (off-target); type: biochemical; settings: read-out: MMP-3 % inhibition at 100 µM
T3 construct: purchased AnaSpec (Fremont, CA, USA)
T3 sequence (P08254 100-477): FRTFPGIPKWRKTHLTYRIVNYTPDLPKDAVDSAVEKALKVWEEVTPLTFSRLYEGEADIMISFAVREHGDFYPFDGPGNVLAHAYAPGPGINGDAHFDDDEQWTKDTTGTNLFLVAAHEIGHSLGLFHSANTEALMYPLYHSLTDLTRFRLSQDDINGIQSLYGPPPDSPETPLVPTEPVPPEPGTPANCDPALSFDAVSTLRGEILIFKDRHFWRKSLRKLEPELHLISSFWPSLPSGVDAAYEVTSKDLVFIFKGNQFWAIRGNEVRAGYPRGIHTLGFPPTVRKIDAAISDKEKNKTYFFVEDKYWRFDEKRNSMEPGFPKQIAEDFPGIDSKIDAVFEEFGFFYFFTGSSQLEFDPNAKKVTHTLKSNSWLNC
Procedure: as §5, §6, §1, §2, §3, §4

HepG2 cells = experiment: Cytotoxicity HepG2; type: cell-based; settings: Homo sapiens, HepG2, read-out: HepG2 % inhibition at 100 µM (metabolic activity), 48 hours
Procedure: (§7) HepG2 (human hepatocellular carcinoma), HEK293 (human embryonal kidney) and A549
(§8) (human lung carcinoma) cells (2x10^5 cells per well) were seeded in 24-well in flat-bottomed
(§9) plates. Culturing of cells, incubations and OD measurements were performed as described
(§10) previously with small modifications.[14] Twenty-four hours after seeding the cells the incubation
(§11) was started by the addition of compounds in a final DMSO concentration of 1%. The living cell
(§12) mass was determined after 48 hours in a PHERAstar microplate reader (BMG labtech,
(§13) Ortenberg, Germany). Two independent measurements were performed for each compound.

MMP-1 = molecular target: T4, MMP-1 (Homo sapiens, UniProt P03956); experiment: MMP-1 inhibition (off-target); type: biochemical; settings: read-out: MMP-1 % inhibition at 100 µM
T4 construct: purchased AnaSpec (Fremont, CA, USA)
T4 sequence (P03956 100-469): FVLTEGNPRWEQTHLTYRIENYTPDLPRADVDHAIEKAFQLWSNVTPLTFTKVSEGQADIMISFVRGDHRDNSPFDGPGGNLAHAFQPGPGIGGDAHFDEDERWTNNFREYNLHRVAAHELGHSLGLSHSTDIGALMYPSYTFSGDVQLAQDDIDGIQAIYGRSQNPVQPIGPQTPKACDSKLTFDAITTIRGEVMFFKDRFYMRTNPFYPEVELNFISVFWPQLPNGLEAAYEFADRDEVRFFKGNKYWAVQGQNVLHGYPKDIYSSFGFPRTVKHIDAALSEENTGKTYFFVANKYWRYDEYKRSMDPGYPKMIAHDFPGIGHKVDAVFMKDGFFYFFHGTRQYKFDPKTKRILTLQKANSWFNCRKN
Procedure: as §5, §6, §1, §2, §3, §4

[1] = tested on: Pseudomonas aeruginosa strain PA14; experiment: Antibacterial effect on P. aeruginosa PA14 growth; type: cell-based; settings: PA14, read-out: P. aeruginosa PA14 % inhibition of growth at 100 µM, 18 h, 37 °C
Procedure: Table S14: Food consumption after treatment with (R)-30.
Table S15: Body and organ weights (gram) after treatment with (R)-30.
3.12 Antibacterial effects
As start OD600 of Pseudomonas aeruginosa strain PA14 we used 0.03 in a total volume of 200
µL in lysogeny broth containing the compounds predissolved in DMSO (max. 1%). Final
compound concentrations prepared from serial dilutions ranged from 3.125 to 100 µM (double
values for each concentration). The ODs were determined after addition of the compounds and
again after incubation for 18 h at 37 °C and 200 rpm in 96 well plates (Sarstedt, Nümbrecht,
Germany) using a FLUOStar Omega (BMG labtech, Ortenberg, Germany). Given percent (%)
inhibition values are means of at least two independent determinations. To obtain the values
for a given compound, their ODs were compared to those of DMSO controls. Concerning the […]

HEK293 cells = experiment: Cytotoxicity HEK293; type: cell-based; settings: Homo sapiens, HEK293, read-out: HEK293 % inhibition at 100 µM (metabolic activity), 48 hours
Procedure: as §7, §8, §9, §10, §11, §12, §13

LasB = molecular target: T5, LasB (Pseudomonas aeruginosa, UniProt Q02RJ6); experiment: In vitro LasB inhibition assay; type: biochemical; settings: for fold loss in inhibition: bulkier residues
T5 construct: made in house
T5 sequence (Q02RJ6 198-498): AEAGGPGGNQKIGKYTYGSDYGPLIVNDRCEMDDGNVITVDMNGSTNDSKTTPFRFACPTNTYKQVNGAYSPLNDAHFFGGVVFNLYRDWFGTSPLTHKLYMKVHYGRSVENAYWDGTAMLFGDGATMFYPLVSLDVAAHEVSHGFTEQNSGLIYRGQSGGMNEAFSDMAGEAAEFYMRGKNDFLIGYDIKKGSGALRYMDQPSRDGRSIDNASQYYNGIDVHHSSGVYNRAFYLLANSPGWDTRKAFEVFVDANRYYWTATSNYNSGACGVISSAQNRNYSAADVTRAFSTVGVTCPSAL
Procedure: as §5
LasB was expressed and purified as described previously.[3] In vitro inhibition assays (LasB,
MMPs, TACE). All in vitro inhibition assays were performed as described previously.[10] […]
Fluorescence signals were measured using a CLARIOstar plate reader (BMG
Labtech, Ortenberg, Germany). […]

A549 cells = experiment: Cytotoxicity A549; type: cell-based; settings: Homo sapiens, A549, read-out: A549 % inhibition at 100 µM (metabolic activity), 48 hours
Procedure: as §7, §8, §9, §10, §11, §12, §13

Row | Structure (SMILES) | IC50 (LasB; IC50 LasB inhibition) | IC50 (LasB; read-out: IC50 LasB inhibition) | other results
1 | CC(C)CC(C(=O)N[C@H](C(=O)Nc1ccc(C(=O)C(F)(F)F)cc1)C(C)C)P(=O)(O)O (stereo partly shown) [compound 31] | 21.7 ± 0.6 nM |  | inhibition at 100 µM (MMP-2): < 10%; inhibition at 100 µM (TACE (ADAM17)): < 10%; inhibition at 100 µM (MMP-3): < 10%; inhibition at 100 µM (HepG2 cells): < 10%; inhibition at 100 µM (MMP-1): < 10%; inhibition at 100 µM [1]: < 10%; inhibition at 100 µM (HEK293 cells): 19 ± 5%; inhibition at 100 µM (A549 cells): < 10%
2 | CC(C)CC(C(=O)N[C@@H](CC1CCCCC1)C(=O)Nc1ccc(Cl)c(Cl)c1)P(=O)(O)O (stereo partly shown) [compound 19] |  |  | fold loss in inhibition (LasB): over 48 fold
3 | CC(C)CC(C(=O)N[C@H](CC(=O)Nc1ccc(Cl)c(Cl)c1)C(C)C)P(=O)(O)O (stereo partly shown) [compound 11] | 2720 ± 55 nM |  | 
4 | CC[C@H](C)[C@H](NC(=O)C(CC(C)C)P(=O)(O)O)C(=O)Nc1ccc(Cl)c(Cl)c1 (stereo partly shown) [compound 15] |  | 13.1 ± 0.5 nM | 
5 | COC[C@H](NC(=O)[C@@H](CC(C)C)P(=O)(O)O)C(=O)Nc1ccc(Cl)c(Cl)c1 [(R)‐18] | 86.7 ± 3.6 nM |  | 
6 | CC(C)CC(C(=O)N[C@@H](CC1CC1)C(=O)Nc1ccc(Cl)c(Cl)c1)P(=O)(O)O (stereo partly shown) [compound 16] |  | 27.1 ± 0.9 nM | 
7 | CC(C)CC(C(=O)N[C@@H](C)C(=O)Nc1ccc(Cl)c(Cl)c1)P(=O)(O)O (stereo partly shown) [compound 8] |  | 61.7 ± 1.6 nM | fold increase in activity (LasB; alanine versus glycine dipeptide 7): 28 fold
8 | Cc1ccc(NC(=O)[C@@H](NC(=O)C(CC(C)C)P(=O)(O)O)C(C)C)cc1 (stereo partly shown) [compound 32] | 12.9 ± 0.4 nM |  | 
9 | CC(C)CC(C(=O)N[C@H](C(=O)Nc1ccc(Cl)cc1)C(C)C)P(=O)(O)O (stereo partly shown) [compound 27] | 9 ± 0.4 nM |  | 
10 | CC(C)CC(C(=O)N[C@@H](CC(C)C)C(=O)Nc1ccc(Cl)c(Cl)c1)P(=O)(O)O (stereo partly shown) [compound 17] |  | 59.4 ± 1.7 nM | 
11 | CC(C)CC(C(=O)N[C@H](C(=O)Nc1cccc(Cl)c1)C(C)C)P(=O)(O)O (stereo partly shown) [compound 28] | 282 ± 13 nM |  | 
12 | CC(C)CC(C(=O)N[C@@H](CC1CCOCC1)C(=O)Nc1ccc(Cl)c(Cl)c1)P(=O)(O)O (stereo partly shown) [compound 20] |  | 379 ± 8 nM | fold loss in inhibition (LasB): over 48 fold
13 | CC(C)C[C@H](C(=O)N[C@@H](Cc1cccnc1)C(=O)Nc1ccc(Cl)c(Cl)c1)P(=O)(O)O [(R)‐25] |  | 574 ± 16 nM | 
14 | CC(=O)c1ccc(NC(=O)[C@@H](NC(=O)[C@H](CC(C)C)P(=O)(O)O)C(C)C)cc1 [(S)‐30] | 129 ± 4 nM |  | 
15 | CC(C)CC(C(=O)N[C@H](C(=O)Nc1ccc(Oc2ccccc2)cc1)C(C)C)P(=O)(O)O (stereo partly shown) [compound 35] | 8 ± 0.3 nM |  | 
16 | COc1ccc(NC(=O)[C@@H](NC(=O)C(CC(C)C)P(=O)(O)O)C(C)C)cc1 (stereo partly shown) [compound 33] | 19.9 ± 0.8 nM |  | 
17 | COC[C@H](NC(=O)[C@H](CC(C)C)P(=O)(O)O)C(=O)Nc1ccc(Cl)c(Cl)c1 [(S)‐18] | 197 ± 5.4 nM |  | 
18 | CC(C)CC(C(=O)N[C@H](C(=O)Nc1ccc(Cl)c(Cl)c1)c1ccccc1)P(=O)(O)O (stereo partly shown) [compound 22] |  | 99.6 ± 2.5 nM | 
19 | CC(C)CC(C(=O)N[C@@H](C(=O)Nc1ccc(Cl)c(Cl)c1)C(C)C)P(=O)(O)O (stereo partly shown) [compound 10] | 11.3 ± 0.4 nM |  | 
20 | CC(C)CC(C(=O)N[C@@H](Cc1ccccc1)C(=O)Nc1ccc(Cl)c(Cl)c1)P(=O)(O)O (stereo partly shown) [compound 23] |  | 426 ± 48 nM | 
21 | CC(C)CC(C(=O)N[C@H](C(=O)Nc1ccc(N2CCOCC2)cc1)C(C)C)P(=O)(O)O (stereo partly shown) [compound 37] | 83.7 ± 2.1 nM |  | fold decrease in activity compared to 9 (LasB; compared to 9): 16 fold
22 | CC(C)C[C@@H](C(=O)N[C@H](C(=O)Nc1ccc(-n2ccnc2)cc1)C(C)C)P(=O)(O)O [(S)‐36] | 417 ± 14 nM |  | 
23 | CC(C)CC(C(=O)N[C@H](C(=O)Nc1ccc(C(F)(F)F)cc1)C(C)C)P(=O)(O)O (stereo partly shown) [compound 29] | 15.2 ± 0.3 nM |  | 
24 | CC(C)CC(C(=O)N[C@H](C(=O)Nc1ccc(OC(C)C)cc1)C(C)C)P(=O)(O)O (stereo partly shown) [compound 34] | 56.7 ± 2 nM |  | 
25 | CC(C)CC(C(=O)Nc1ccc(C(F)(F)F)cc1)P(=O)(O)O (stereo not shown) [compound 5, reference compound] |  |  | fold enhancement in IC50 compared to the original hit (LasB; compared to thiol-based hit 4): 18 fold
26 | CC(C)CC(C(=O)N[C@H](C(=O)Nc1ccc(Cl)c(Cl)c1)C1CC1)P(=O)(O)O (stereo partly shown) [compound 12] | 28.8 ± 0.8 nM |  | 
